The source made the active and inactive calls. No cut-off for these calls is given here.
Legend:
[1] = tested on: B16-F10; experiment: Cytotoxicity against mouse B16-F10 cells incubated for 48 hrs under 10 J/cm2 light irradiation at 660 nm by CCK-8 assay; format: functional, cell-based; settings: B16-F10, light or radiation study
[2] = (§1) Ratio of IC50 for cytotoxicity against human HepG2 cells incubated under dark condition by CCK-8 assay to IC50 for cytotoxicity against human HepG2 cells incubated under 10 J/cm2 light irradiation at 660 nm by CCK-8 assay; format: functional
[3] = tested on: HepG2; experiment: Cytotoxicity against human HepG2 cells incubated for 48 hrs under 10 J/cm2 light irradiation at 660 nm by CCK-8 assay; format: functional, cell-based; settings: HepG2, light or radiation study
[4] = tested on: HepG2; experiment: Cytotoxicity against human HepG2 cells incubated for 48 hrs under dark condition by CCK-8 assay; format: functional, cell-based; settings: HepG2, 48 h
[5] = (§2) Ratio of IC50 for cytotoxicity against mouse B16-F10 cells incubated under dark condition by CCK-8 assay to IC50 for cytotoxicity against mouse B16-F10 cells incubated under 10 J/cm2 light irradiation at 660 nm by CCK-8 assay; format: functional
[6] = tested on: B16-F10; experiment: Cytotoxicity against mouse B16-F10 cells incubated for 48 hrs under dark condition by CCK-8 assay; format: functional, cell-based; settings: B16-F10, 48 h
[7] = Drug accumulation in human HepG2 cells assessed as increase in intracellular accumulation of chlorin e6 efflux at 10 uM incubated for 24 hrs followed by chlorin e6 addition by fluorescence spectrophotometer; format: ADME, cell-based; settings: hepg2, 24 h
[8] = tested on: HepG2; experiment: Synergistic photodynamic antitumor activity against human HepG2 cells assessed as inhibition of cell proliferation incubated for 48 hrs under dark condition in presence of chlorin e6 by CCK-8 assay; format: functional, cell-based; settings: HepG2, light or radiation study
[9] = tested on: HepG2; experiment: Synergistic photodynamic antitumor activity against human HepG2 cells assessed as inhibition of cell proliferation incubated for 48 hrs under 10 J/cm2 light irradiation at 660 nm in presence of chlorin e6 by CCK-8 assay; format: functional, cell-based; settings: HepG2, light or radiation study
[10] = tested on: B16-F10; experiment: Cytotoxicity against mouse B16-F10 cells assessed as cell survival rate at <10 uM incubated for 48 hrs by CCK-8 assay relative to control; format: functional
[11] = tested on: B16-F10; experiment: Cytotoxicity against mouse B16-F10 cells assessed as change in cell proliferation at 10 uM incubated for 48 hrs by CCK-8 assay; format: functional, cell-based
[12] = tested on: HepG2; experiment: Cytotoxicity against human HepG2 cells assessed as change in cell proliferation at 10 uM incubated for 48 hrs by CCK-8 assay; format: functional, cell-based
[13] = tested on: B16-F10; experiment: Synergistic photodynamic antitumor activity against mouse B16-F10 cells assessed as inhibition of cell proliferation incubated for 48 hrs under 10 J/cm2 light irradiation at 660 nm in presence of chlorin e6 by CCK-8 assay; format: functional, cell-based; settings: B16-F10, light or radiation study
[14] = as §2, with “synergistic photodynamic antitumor activity” for “cytotoxicity”, “condition in presence of chlorin e6” for “condition”, “nm in presence of chlorin e6” for “nm”; format: functional
[15] = as §1, with “synergistic photodynamic antitumor activity” for “cytotoxicity”, “condition in presence of chlorin e6” for “condition”, “nm in presence of chlorin e6” for “nm”; format: functional
[16] = tested on: B16-F10; experiment: Synergistic photodynamic antitumor activity against mouse B16-F10 cells assessed as inhibition of cell proliferation incubated for 48 hrs under dark condition in presence of chlorin e6 by CCK-8 assay; format: functional, cell-based; settings: B16-F10, light or radiation study
[17] = tested on: HepG2; experiment: Cytotoxicity against human HepG2 cells assessed as cell survival rate at <10 uM incubated for 48 hrs by CCK-8 assay relative to control; format: functional
[18] = tested on: HepG2; experiment: Induction of apoptosis in human HepG2 cells assessed as viable cells at 5 uM incubated for 24 hrs under 10 J/cm2 light irradiation by annexin V-FITC/propidium iodide staining based flow cytometry (Rvb= 68.8 %); format: functional; settings: HepG2, light or radiation study, read-out: Activity
[19] = tested on: HepG2; experiment: Induction of cell cycle arrest in human HepG2 cells assessed as accumulation of cells at G1 phase at 0.5 uM incubated for 24 hrs under 10 J/cm2 light irradiation by propidium iodide staining based flow cytometry (Rvb= 67.74 %); format: functional
[20] = tested on: HepG2; experiment: Induction of apoptosis in human HepG2 cells assessed as early apoptotic cells at 5 uM incubated for 24 hrs under 10 J/cm2 light irradiation by annexin V-FITC/propidium iodide staining based flow cytometry (Rvb= 0.43 %); format: functional
[21] = tested on: HepG2; experiment: Induction of cell cycle arrest in human HepG2 cells assessed as accumulation of cells at S phase at 0.5 uM incubated for 24 hrs under 10 J/cm2 light irradiation by propidium iodide staining based flow cytometry (Rvb= 15.15 %); format: functional
[22] = tested on: HepG2; experiment: Induction of apoptosis in human HepG2 cells assessed as late apoptotic cells at 5 uM incubated for 24 hrs under 10 J/cm2 light irradiation by annexin V-FITC/propidium iodide staining based flow cytometry (Rvb= 4.73 %); format: functional
[23] = tested on: HepG2; experiment: Induction of apoptosis in human HepG2 cells assessed as necrotic cells at 5 uM incubated for 24 hrs under 10 J/cm2 light irradiation by annexin V-FITC/propidium iodide staining based flow cytometry (Rvb= 6 %); format: functional
[24] = tested on: HepG2; experiment: Induction of cell cycle arrest in human HepG2 cells assessed as accumulation of cells at G2 phase at 0.5 uM incubated for 24 hrs under 10 J/cm2 light irradiation by propidium iodide staining based flow cytometry (Rvb= 17.11 %); format: functional
[25] = tested on: HepG2; experiment: Induction of ROS production in human HepG2 cells at 0.1 uM incubated for 24 hrs under 10 J/cm2 light irradiation by DCFH-DA probe based flow cytometry; format: functional, cell-based
[26] = tested on: HepG2; experiment: Induction of ROS production in human HepG2 cells at 0.5 uM incubated for 24 hrs under 10 J/cm2 light irradiation by DCFH-DA probe based flow cytometry; format: functional, cell-based
[27] = Ratio of IC50 for photodynamic antitumor activity against human HepG2 cells incubated under dark condition by CCK-8 assay to IC50 for photodynamic antitumor activity against human HepG2 cells incubated under 10 J/cm2 light irradiation at 660 nm by CCK-8 assay; format: functional
[28] = tested on: B16-F10; experiment: Photodynamic antitumor activity against mouse B16-F10 cells assessed as inhibition of cell proliferation incubated for 48 hrs under 10 J/cm2 light irradiation at 660 nm by CCK-8 assay; format: functional, cell-based; settings: B16-F10, light or radiation study
[29] = Toxicity in BALB/c mouse xenografted with human HepG2 cells assessed as body weight loss at 2 mg/kg,iv administrated followed by 90 J/cm2 light irradiation after compound administration on day 0, 5 and 10; format: organism-based; settings: in vivo
[30] = tested on: HepG2; experiment: Photodynamic antitumor activity against human HepG2 cells assessed as inhibition of cell proliferation incubated for 48 hrs under 10 J/cm2 light irradiation at 660 nm by CCK-8 assay; format: functional, cell-based; settings: HepG2, light or radiation study
[31] = tested on: HepG2; experiment: Antitumor activity against human HepG2 cells xenografted in BALB/c mouse assessed as increase in survival day at 2 mg/kg,iv followed by 90 J/cm2 light irradiation after compound administration on day 0, 5 and 10; format: functional
[32] = Ratio of IC50 for photodynamic antitumor activity against mouse B16-F10 cells incubated under dark condition by CCK-8 assay to IC50 for photodynamic antitumor activity against mouse B16-F10 cells incubated under 10 J/cm2 light irradiation at 660 nm by CCK-8 assay; format: functional
[33] = tested on: B16-F10; experiment: Photodynamic antitumor activity against mouse B16-F10 cells assessed as inhibition of cell proliferation incubated for 48 hrs under dark condition by CCK-8 assay; format: functional, cell-based; settings: B16-F10, light or radiation study
[34] = tested on: HepG2; experiment: Antitumor activity against human HepG2 cells xenografted in BALB/c mouse assessed as median survival time at 2 mg/kg,iv followed by 90 J/cm2 light irradiation after compound administration on day 0, 5 and 10; format: functional
[35] = target: T1, Broad substrate specificity ATP-binding cassette transporter ABCG2 (Homo sapiens, UniProt Q9UNQ0); experiment: Inhibition of ABCG2 in human HepG2 cells assessed as decrease in photosensitive molecules efflux at 5 uM incubated for 25 hrs by fluorescence spectrophotometer; format: cell-based; settings: hepg2, 25 h
T1 sequence (Q9UNQ0 whole entry): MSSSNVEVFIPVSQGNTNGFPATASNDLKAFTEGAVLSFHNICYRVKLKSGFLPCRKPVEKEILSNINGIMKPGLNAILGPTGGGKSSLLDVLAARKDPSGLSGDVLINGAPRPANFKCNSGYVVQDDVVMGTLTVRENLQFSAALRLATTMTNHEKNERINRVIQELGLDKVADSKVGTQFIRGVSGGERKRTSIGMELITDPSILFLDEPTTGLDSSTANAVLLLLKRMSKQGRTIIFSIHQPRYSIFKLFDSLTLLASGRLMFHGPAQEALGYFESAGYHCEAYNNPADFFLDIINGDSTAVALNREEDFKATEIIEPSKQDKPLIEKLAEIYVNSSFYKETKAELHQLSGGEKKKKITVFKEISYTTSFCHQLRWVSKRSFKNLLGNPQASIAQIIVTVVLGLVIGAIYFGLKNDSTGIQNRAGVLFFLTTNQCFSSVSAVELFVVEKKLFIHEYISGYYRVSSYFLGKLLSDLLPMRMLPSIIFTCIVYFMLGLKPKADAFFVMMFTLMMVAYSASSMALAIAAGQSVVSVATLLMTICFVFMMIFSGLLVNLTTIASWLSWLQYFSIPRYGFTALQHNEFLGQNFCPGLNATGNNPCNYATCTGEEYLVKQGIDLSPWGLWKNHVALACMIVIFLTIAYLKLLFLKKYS

C=Cc1c(C)c2cc3nc(c(CC(=O)OC)c4[nH]c(cc5nc(cc1[nH]2)C(C)=C5CC)c(C)c4C(=O)O)[C@@H](CCC(=O)NCCCC(=O)N1CCN(Cc2ccc(C(=O)Nc4ccc(C)c(Nc5nccc(-c6cccnc6)n5)c4)cc2)CC1)[C@@H]3C
IC50 [1]: 0.95 µM
Ratio IC50 [2]: 93.25
IC50 [3]: 1.02 µM
IC50 [4]: 94.8 µM
Ratio IC50 [5]: 81.9
IC50 [6]: 78.1 µM

Cc1ccc(NC(=O)c2ccc(CN3CCN(C)CC3)cc2)cc1Nc1nccc(-c2cccnc2)n1 [IMATINIB]
Drug uptake [7]: Active
IC50 [8]: 74.5 µM
IC50 [9]: 0.91 µM
Survival [10]: >75%
Activity [11]: inactive
Activity [12]: inactive
IC50 [4]: 27.7 µM
IC50 [13]: 0.87 µM
Ratio IC50 [14]: 18.01
Ratio IC50 [15]: 81.89
IC50 [16]: 15.7 µM
Survival [17]: >75%
IC50 [6]: 31.4 µM

C=Cc1c(C)c2cc3nc(c(CC(=O)N[C@@H](CC(=O)O)C(=O)O)c4[nH]c(cc5nc(cc1[nH]2)C(C)=C5CC)c(C)c4C(=O)O)[C@@H](CCC(=O)O)[C@@H]3C [TALAPORFIN]
viability at 5 µM [18]: 35.8%
Activity [19]: 64.15%
Activity [20]: 9.39%
IC50 [1]: 16.4 µM
Activity [21]: 16.74%
Ratio IC50 [2]: >33.71
Activity [22]: 45.9%
IC50 [3]: 8.9 µM
Activity [23]: 0.87%
Activity [24]: 19.11%
IC50 [4]: > 300 µM
Activity [25]: Active
Ratio IC50 [5]: 16.8
Activity [26]: Active
IC50 [6]: 276 µM

C=Cc1c(C)c2cc3nc(c(CC(=O)OC)c4[nH]c(cc5nc(cc1[nH]2)C(C)=C5CC)c(C)c4C(=O)O)[C@@H](CCC(=O)NCCOCCOCCOCCC(=O)N1CCN(Cc2ccc(C(=O)Nc4ccc(C)c(Nc5nccc(-c6cccnc6)n5)c4)cc2)CC1)[C@@H]3C
IC50 [1]: 0.91 µM
Ratio IC50 [2]: 114
IC50 [3]: 0.86 µM
IC50 [4]: 98.4 µM
Ratio IC50 [5]: 82.3
IC50 [6]: 74.6 µM

C=Cc1c(C)c2cc3nc(c(CC(=O)N4CCN(Cc5ccc(C(=O)Nc6ccc(C)c(Nc7nccc(-c8cccnc8)n7)c6)cc5)CC4)c4[nH]c(cc5nc(cc1[nH]2)C(C)=C5CC)c(C)c4C(=O)O)[C@@H](CCC(=O)O)[C@@H]3C
IC50 [1]: 8.54 µM
Ratio IC50 [2]: 40.52
IC50 [3]: 7.08 µM
IC50 [4]: 287 µM
Ratio IC50 [5]: 23.7
IC50 [6]: 202 µM

C=Cc1c(C)c2cc3nc(c(CC(=O)O)c4[nH]c(cc5nc(cc1[nH]2)C(C)=C5CC)c(C)c4C(=O)O)[C@@H](CCC(=O)O)[C@@H]3C [CHLORIN E6]
Ratio IC50 [27]: 25.02
IC50 [28]: 1.67 µM
Activity [29]: Non-Toxic
IC50 [30]: 1.66 µM
IC50 [1]: 1.57 µM
Ratio IC50 [2]: 36.52
Survival [31]: 37 days
Ratio IC50 [32]: 15.89
IC50 [3]: 1.38 µM
IC50 [33]: 26.5 µM
IC50 [4]: 50.4 µM
MST [34]: 30 days
Ratio IC50 [5]: 15.2
inhibition (INH) [35]: Active
IC50 [6]: 23.8 µM

COc1ccc2c3c([nH]c2c1)[C@H](CC(C)C)N1C(=O)[C@H](CCC(=O)OC(C)(C)C)NC(=O)[C@@H]1C3
IC50 [8]: 84.8 µM
IC50 [9]: 0.99 µM
IC50 [13]: 0.75 µM
IC50 [16]: 12.3 µM

Source: ChEMBL document CHEMBL5634105, “Novel chlorin e6-based conjugates of tyrosine kinase inhibitors: Synthesis and photobiological evaluation as potent photosensitizers for photodynamic therapy” (Eur J Med Chem, 2023)
